For one experiment, the target named is T1, CHRM5 (Homo sapiens, UniProt P08912).
T1 construct: purchased Promega (in-house HiBiT-GPCR construct library, NanoBRET)
T1 sequence (P08912 1-532): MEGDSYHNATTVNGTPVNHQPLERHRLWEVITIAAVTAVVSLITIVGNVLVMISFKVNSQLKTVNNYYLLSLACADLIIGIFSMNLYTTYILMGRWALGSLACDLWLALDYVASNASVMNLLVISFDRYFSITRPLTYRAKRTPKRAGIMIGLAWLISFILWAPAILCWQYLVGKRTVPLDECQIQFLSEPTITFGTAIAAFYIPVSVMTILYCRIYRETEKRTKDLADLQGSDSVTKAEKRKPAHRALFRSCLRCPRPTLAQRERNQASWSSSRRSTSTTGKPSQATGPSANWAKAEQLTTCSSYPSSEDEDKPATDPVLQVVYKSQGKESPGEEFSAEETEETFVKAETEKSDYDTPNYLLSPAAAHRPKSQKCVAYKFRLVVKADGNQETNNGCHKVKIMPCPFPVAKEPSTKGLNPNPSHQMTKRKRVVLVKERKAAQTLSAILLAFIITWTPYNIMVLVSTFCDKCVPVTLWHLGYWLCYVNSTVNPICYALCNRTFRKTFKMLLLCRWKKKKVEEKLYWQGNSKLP
Description: NanoBRET screen HiBiT-CHRM5 in HEK293. The class given is binding. The conditions noted are these: CHRM5. As to the method:
(§1) Each tracer candidate was screened across the entire library of HiBiT-GPCR constructs using NanoBRET as the detection modality. As depicted in Figure 4A, the specificity of interactions was evaluated through decrease in BRET due to competitive displacement of a bound tracer by excess parental compound. Each tracer was analyzed for binding to each HiBiT-GPCR fusion in the absence and in the presence of competing parental compound. Briefly, HEK293 cells were transfected with HiBiT-GPCR constructs diluted into promoterless DNA to reduce expression and maximize translocation to the cell surface. Each tracer candidate was then screened at concentrations of 1 μM and 0.1 μM across cells expressing these fusions. Cells were treated for 1.5 h with tracer either alone or in the presence of 20 μM competing parental compound (i.e., control). BRET was measured upon addition of purified LgBiT and subsequent complementation with HiBiT genetically fused to a GPCR. The specificity of interactions was assessed through a decrease in BRET signal due to competitive displacement of the bound tracer. To further gauge the robustness of these interactions, the fold response over the control (i.e., BRETtracer/BRETcontrol) was calculated. We chose a 1.5-fold response, which translates to ≥7-fold signal over noise as the minimal threshold required to score an interaction as positive.
(§2) HiBiT-GPCR DNA constructs were diluted in 10 mM Tris pH 8 to a final concentration of 0.01 μg/μL, arrayed in 96-well plates and stored at −20 °C. For transfection, HEK293 cells were suspended in Opti-MEM (without phenol red) supplemented with 2% fetal bovine serum (Seradigm) and 100 units/mL penicillin–streptomycin (Gibco) at a final concentration of 220,000 cells/mL and dispensed into white 96-well plates at 90 μL/well. Subsequent transfections and screens were carried using an Agilent Bravo Automated Liquid Handling Platform. First, the 96-well HiBiT DNA arrays were diluted 25-fold in Opti-MEM (without serum or phenol red) to a final concentration of 0.0004 μg/μL and 20 μL of the diluted DNAs were transferred into new 96-well plates. Next, promoterless carrier DNA (1 μg/μL) was diluted 25-fold (0.04 μg/μL) and then dispensed into the diluted arrays at 20 μL/well. Following brief mixing, Viafect transfection reagent (Promega) diluted 16-fold into Opti-MEM was dispensed into the plates at 40 μL/well. After mixing by pipetting, plates were incubated for 10 min on the pipetting station deck. The DNA-transfection reagent complexes were then added to plates containing cells. To facilitate the screen, 10 μL of DNA-transfection reagent complexes were added in duplicates to the top 4 and bottom 4 rows, resulting in two identical 48-well arrays per plate. Plates with transfected cells were incubated for 18–20 h at 37 °C/5% CO2. A screen of each tracer across the entire library using two different concentrations requires duplicate plates of transfected cells. Depending on the number of tracers being screened, transfections can be scaled up using the same ratios. The next day, for each tracer, four 20× screening solutions in tracer dilution buffer (Promega) were prepared: two duplicates at final concentration of 20 μM and two duplicates at a final concentration of 2 μM. […] The four resulting solutions were diluted 4-fold in Opti-MEM without serum or phenol red to generate 5× solutions (5 µM and 0.5 µM tracer +/− 100 μM competing compound). To screen the library, a BioTek MultiFlo FX liquid dispenser was used to dispense 22.5 µL of tracer solution to the top 4 rows and 22.5 µL tracer + competing compound solution to the 4 bottom rows. Plates were briefly mixed on an orbital shaker and incubated for 1.5 h at room temperature. […] Plates were briefly mixed on an orbital shaker and incubated for 15 min to allow complementation.
A general note: BRET reads energy transfer from a luciferase to a nearby fluorophore.

The target in a further experiment is T2, TSHR (Homo sapiens, UniProt P16473).
T2 construct: purchased Promega (in-house HiBiT-GPCR construct library, NanoBRET)
T2 sequence (P16473 21-764): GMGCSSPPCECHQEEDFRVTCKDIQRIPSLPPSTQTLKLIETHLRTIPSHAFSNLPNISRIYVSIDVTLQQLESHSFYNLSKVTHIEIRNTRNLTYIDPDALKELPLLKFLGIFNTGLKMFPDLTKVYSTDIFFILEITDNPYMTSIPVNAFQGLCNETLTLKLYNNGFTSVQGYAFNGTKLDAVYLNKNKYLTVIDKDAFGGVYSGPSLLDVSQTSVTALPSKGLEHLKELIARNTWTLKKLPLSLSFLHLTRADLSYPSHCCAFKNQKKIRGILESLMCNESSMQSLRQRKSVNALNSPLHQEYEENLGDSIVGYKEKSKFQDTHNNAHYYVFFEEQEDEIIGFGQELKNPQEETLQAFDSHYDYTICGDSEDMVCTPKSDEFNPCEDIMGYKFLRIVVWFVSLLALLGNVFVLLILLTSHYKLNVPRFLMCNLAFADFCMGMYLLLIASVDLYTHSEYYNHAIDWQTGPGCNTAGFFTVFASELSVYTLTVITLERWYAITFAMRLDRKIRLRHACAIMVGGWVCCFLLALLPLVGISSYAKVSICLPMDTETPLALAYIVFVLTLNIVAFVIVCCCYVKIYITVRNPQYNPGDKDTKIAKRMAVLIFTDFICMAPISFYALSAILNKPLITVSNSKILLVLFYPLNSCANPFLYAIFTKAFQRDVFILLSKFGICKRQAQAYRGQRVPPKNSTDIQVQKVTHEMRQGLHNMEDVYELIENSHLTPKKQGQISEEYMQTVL
The experiment can be described thus: NanoBRET screen HiBiT-TSHR in HEK293. The experiment is classed as binding. The conditions noted are these: TSHR. How it is done:
as §1, §2

From paper PMC8151276, “An Integrated Approach toward NanoBRET Tracers for Analysis of GPCR Ligand Engagement” (Molecules, 2021) come the findings set out here.

Take `CC(C)N(CC[C@H](c1ccccc1)c1cc(CCNC(=O)CCOCCOCCOCCOCCNC(=O)CCc2ccc3n2[B-](F)(F)[N+]2=C(c4ccc[nH]4)C=CC2=C3)ccc1O)C(C)C` [Tolterodine-2-NB590]: the “NanoBRET Fold Response” value at CHRM5 (tracer 0.1μM) is on record as 3.27; at CHRM5 (tracer 1μM), 2.82; at TSHR (tracer 0.1μM), 0.69; at TSHR (tracer 1μM) it was 1.20.
Regarding `N#CN=C(NCCCOc1cccc(CN2CCCCC2)c1)NCCNC(=O)CCOCCOCCOCCOCCNC(=O)CCc1ccc2n1[B-](F)(F)[N+]1=C(c3ccc[nH]3)C=CC1=C2` [Aminopotentidine-2-NB590], the “NanoBRET Fold Response” value at CHRM5 (tracer 0.1μM) is reported as 1.02; on CHRM5 (tracer 1μM), 1.10; on TSHR (tracer 0.1μM), 1.07; on TSHR (tracer 1μM) it was 1.01.
As to `Cc1nc2n(c(=O)c1CCN1CCC(c3noc4cc(F)ccc34)CC1)CCCC2OC(=O)NCCOCCOCCOCCOCCNC(=O)CCc1ccc2n1[B-](F)(F)[N+]1=C(c3ccc[nH]3)C=CC1=C2` (stereo not drawn) [Risperidone-2-NB590], the “NanoBRET Fold Response” value was 1.07 at CHRM5 (tracer 0.1μM), 0.95 on CHRM5 (tracer 1μM), 1.00 at TSHR (tracer 0.1μM) and 0.96 at TSHR (tracer 1μM).
